The target of one series is T1, SSTR-2 (Homo sapiens, UniProt P30874).
T1 construct: expressed in transfected cells
Put plainly: Inhibition of 125I-Tyr11-SRIF binding to membrane preparations expressing SSTR-2. The note with it: for IC50: Table 15, read-out: IC50 (nM) for SST-R 2. The method, then:
(§1) The receptor preparations used for these tests were either from the cloned human receptors selectively and stably expressed in Chinese Hamster Ovary (CHO) cells or from cell lines naturally expressing the SSTRs. […] The binding reactions were filtered, the filters were washed and the bound radioactivity was counted in gamma counter. Non specific binding was defined as the radioactivity remaining bound in the presence of 1 μM unlabeled SRIF-14.
(§2) In order to validate positive signals of the binding tests, and to eliminate non-specific signals, samples of irrelevant peptides, such as GnRH, that were synthesized and handled using the same procedures, were tested in the same assays as negative control samples. These samples had no binding activity in any of the assays. Results are shown below in Tables 5 and 6 and FIG. 1.

A further series addresses T2, SSTR-3 (Homo sapiens, UniProt P32745).
T2 construct: expressed in transfected cells
Put plainly: Inhibition of 125I-Tyr11-SRIF binding to membrane preparations expressing SSTR-3. Conditions: for IC50: Table 15, read-out: IC50 (nM) for SST-R 3. The procedure: as §1, with “The somatostatin analogs were tested for their potency in inhibition of the binding of ^125I-Tyr^11-SRIF (based on the method described by Raynor et. al., Molecular Pharmacology, 1993, 43, 838-844) to membrane preparations expressing the transmembranal somatostatin receptors (SSTR-1, 2, 3, 4 or 5). The receptor” for “The receptor”
as §2

In a further series the target is T3, SSTR-5 (Homo sapiens, UniProt P35346).
T3 construct: expressed in transfected cells
T3 sequence (P35346 whole entry): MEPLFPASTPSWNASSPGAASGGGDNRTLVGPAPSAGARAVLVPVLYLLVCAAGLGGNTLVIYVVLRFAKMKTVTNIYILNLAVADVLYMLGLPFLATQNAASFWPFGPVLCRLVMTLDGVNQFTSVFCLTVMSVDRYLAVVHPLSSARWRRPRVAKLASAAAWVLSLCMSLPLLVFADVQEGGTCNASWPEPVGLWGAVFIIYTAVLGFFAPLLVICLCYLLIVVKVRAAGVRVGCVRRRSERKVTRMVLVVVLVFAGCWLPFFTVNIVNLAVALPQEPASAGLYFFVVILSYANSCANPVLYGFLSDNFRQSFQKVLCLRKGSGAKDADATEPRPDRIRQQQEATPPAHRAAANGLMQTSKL
Put plainly: Inhibition of 125I-Tyr11-SRIF binding to membrane preparations expressing SSTR-5. The note with it: for IC50: Table 15, read-out: IC50 (nM) for SST-R 5. The procedure: as §1, §2

A further series is described as follows: in vitro. The note with it: kidney or brush border membranes. The procedure: The assay was based on HPLC determination of peptide degradation as a function of time in renal homogenate at 37° C.

pIC50: −log10 of the molar value. Read-outs that look alike come from different tables or passages of the source. *1 amine or outer side, *2 acyl side, *3 side chain or, on linkers, in order; H or OH if unused. Where a SMILES comes first, the peptide text is derived from it. Bridges are numbered along the chain shown (N, C = ends). [ ]: non-standard residue; d: D form. Phe(Nα-CH2CH2CO) = O=C([C@H](Cc1ccccc1)N(CCC(=O)[*:3])[*:1])[*:2]; N(2-mercaptoethyl)Gly = O=C(CN(CCS[*:3])[*:1])[*:2]

T2 sequence (P32745 whole entry): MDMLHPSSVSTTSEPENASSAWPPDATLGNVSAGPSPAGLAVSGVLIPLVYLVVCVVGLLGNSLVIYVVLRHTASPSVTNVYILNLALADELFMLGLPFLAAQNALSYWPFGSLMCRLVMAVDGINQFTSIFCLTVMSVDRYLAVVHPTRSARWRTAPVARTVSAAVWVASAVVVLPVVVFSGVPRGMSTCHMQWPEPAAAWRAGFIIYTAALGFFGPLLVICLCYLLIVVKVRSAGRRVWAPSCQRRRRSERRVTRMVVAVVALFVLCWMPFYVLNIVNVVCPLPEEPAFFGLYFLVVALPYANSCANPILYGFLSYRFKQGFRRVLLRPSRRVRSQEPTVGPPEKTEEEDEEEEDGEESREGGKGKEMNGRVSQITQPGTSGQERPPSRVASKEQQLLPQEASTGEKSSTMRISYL
T1 sequence (P30874 whole entry): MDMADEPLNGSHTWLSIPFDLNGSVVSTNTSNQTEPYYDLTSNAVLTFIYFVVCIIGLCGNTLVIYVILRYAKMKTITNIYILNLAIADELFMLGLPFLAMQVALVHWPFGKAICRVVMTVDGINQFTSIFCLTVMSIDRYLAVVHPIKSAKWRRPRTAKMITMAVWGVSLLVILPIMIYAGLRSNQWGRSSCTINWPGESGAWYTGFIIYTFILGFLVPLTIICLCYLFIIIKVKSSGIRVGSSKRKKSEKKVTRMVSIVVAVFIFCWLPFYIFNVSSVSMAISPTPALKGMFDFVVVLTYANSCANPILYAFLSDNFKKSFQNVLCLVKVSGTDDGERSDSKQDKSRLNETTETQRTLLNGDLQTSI

With `C[C@@H](O)[C@@H]1NC(=O)[C@H](CCCCN)NC(=O)[C@@H](Cc2c[nH]c3ccccc23)NC(=O)[C@H](Cc2c[nH]c3ccccc23)NC(=O)[C@H](Cc2ccccc2)NC(=O)CSSCCN(CC(N)=O)C(=O)[C@H](Cc2ccccc2)NC1=O` [PTR 3211, Mercapto-acetic-acid(*)-Phe-Trp-(D)Trp-Lys-Thr-Phe-Gly(S2)*-NH2], the IC50 – broadly, the point on the concentration scale where inhibition reaches its midpoint – at SSTR-2 is 37 nM; at SSTR-3 it was 12 to 37 nM.
On to `C[C@@H](O)[C@@H]1NC(=O)[C@H](CCCCN)NC(=O)[C@@H](Cc2c[nH]c3ccccc23)NC(=O)[C@H](Cc2c[nH]c3ccccc23)NC(=O)[C@H](Cc2ccccc2)NC(=O)CN(C(=O)[C@H](N)Cc2ccccc2)CCSSCCN(CC(N)=O)C(=O)[C@H](Cc2ccccc2)NC1=O` [PTR 3219, (D)Phe-Gly(S2)*-Phe-Trp-(D)Trp-Lys-Thr-Phe-Gly(S2)*-NH2], for which the pIC50 (in general, the negative decadic logarithm of the IC50, by convention in mol/L) at SSTR-2 is 8.40.
For `C[C@@H](O)[C@@H]1NC(=O)[C@H](CCCCN)NC(=O)[C@@H](Cc2c[nH]c3ccccc23)NC(=O)[C@H](Cc2c[nH]c3ccccc23)NC(=O)[C@H](Cc2ccccc2)NC(=O)CNCCSSCCN(CC(N)=O)C(=O)[C@H](Cc2ccccc2)NC1=O` [PTR 3213, Gly(S2)*-Phe-Trp-(D)Trp-Lys-Thr-Phe-Gly(S2)*-NH2], the IC50 amounted to 4 nM on SSTR-2 and 12 nM at SSTR-5.
Consider `NCCCC[C@H]1NC(=O)[C@@H](Cc2c[nH]c3ccccc23)NC(=O)[C@H](Cc2ccccc2)NC(=O)[C@H](Cc2ccccc2)NC(=O)[C@H](Cc2ccccc2)NC(=O)CCN([C@@H](Cc2ccccc2)C(N)=O)C1=O` [PTR 3171, Phe*-Phe-Phe-(D)Trp-(D)Lys-Phe(C2)-X] (FFF[dW][dK][Phe(Nα-CH2CH2CO)]-NH2; lactam N-6), for which the fraction remaining (as a rule, the share of the starting amount still present when the sample was taken) at 1 h in “in vitro” stood at 100%. In the series “in vitro”, this compound showed a fraction remaining at 3 h of 100%. Further, the share remaining at 24 h in “in vitro” stood at 100%. The inhibition – broadly, the percentage by which the read-out fell short of the control – at 1 µM came to 60% at SSTR-5 (SST-R5, 10^−6M, read-out: Percent inhibition of SRIF-14 binding) and 87% on SSTR-3 (SST-R3, 10^−6M, read-out: Percent inhibition of SRIF-14 binding). Moreover, the inhibition at 0.1 µM at SSTR-5 (SST-R5, 10^−7M, read-out: Percent inhibition of SRIF-14 binding) was determined as 10%; on SSTR-3 (SST-R3, 10^−7M, read-out: Percent inhibition of SRIF-14 binding), 40%. The inhibition at 0.01 µM on SSTR-5 (SST-R5, 10^−8M, read-out: Percent inhibition of SRIF-14 binding) stood at 18%; on SSTR-3 (SST-R3, 10^−8M, read-out: Percent inhibition of SRIF-14 binding), 12%.
Turning to `C[C@@H](O)[C@@H]1NC(=O)[C@H](CCCCN)NC(=O)[C@@H](Cc2c[nH]c3ccccc23)NC(=O)[C@H](Cc2c[nH]c3ccccc23)NC(=O)[C@H](Cc2ccccc2)NC(=O)[C@@H](NC(=O)[C@H](N)Cc2ccccc2)CSSCCN(CC(N)=O)C(=O)[C@H](Cc2ccccc2)NC1=O` [PTR 3207, (D)Phe-Cys*-Phe-Trp-(D)Trp-Lys-Thr-Phe-Gly(S2)*-NH2], the IC50 on SSTR-2 is 1 to 12 nM.
With `C[C@@H](O)[C@@H]1NC(=O)[C@H](CCCCN)NC(=O)[C@@H](Cc2c[nH]c3ccccc23)NC(=O)[C@H](Cc2c[nH]c3ccccc23)NC(=O)[C@H](Cc2ccccc2)NC(=O)CCSSCCN(CC(N)=O)C(=O)[C@H](Cc2ccccc2)NC1=O` [PTR 3217, 3-Thiopropanoic-acid*-Phe-Trp-(D)Trp-Lys-Thr-Phe-Gly(S2)*-NH2], the IC50 came to 37 nM on SSTR-2 and 100 nM on SSTR-3.
Regarding `C[C@@H](O)[C@@H]1NC(=O)[C@H](CCCCN)NC(=O)[C@@H](Cc2c[nH]c3ccccc23)NC(=O)[C@H](Cc2c[nH]c3ccccc23)NC(=O)[C@H](Cc2ccccc2)NC(=O)[C@@H](N)CSSCCN(CC(N)=O)C(=O)[C@H](Cc2ccccc2)NC1=O` [PTR 3197, Cys*-Phe-Trp-(D)Trp-Lys-Thr-Phe-Gly(S2)*-NH2] (H-CFW[dW]KTF[N(2-mercaptoethyl)Gly]-NH2; disulfide 1-8; N-terminus assumed), the IC50 on SSTR-2 turned out to be 4 nM; at SSTR-5, 1 nM.

The record behind these values is patent US6930088B2, “Conformationally constrained backbone cyclized somatostatin analogs” (Peptor Ltd., priority 1998, dated 2005).
